Assay results as given in patent US4267184A, “Antiinflammatory 4,5-diaryl-2-(substituted-thio)pyrroles and their corresponding sulfoxides and sulfones” (E. I. Du Pont de Nemours and Company, priority 1980, dated 1981).

Experiments:
[1] = tested on: phenylquinone writhing in mice; assay: Phenylquinone Writhing Test (analgesic activity); assay type: in vivo, female white mice; conditions: Mus musculus, oral, phenylquinone i.p., effective analgesic dose for 50% of the mice
Source text: A procedure for detecting and comparing the analgesic activity of compounds in this series and standard drugs for which there is a good correlation with human efficacy is the phenylquinone writhing test.
(§1) The test procedures employed for determining antiinflammatory and analgesic activity are described below with test data included in Tables VII and VIII.
The phenylquinone writhing test, modified from Siegmund, et al., Proc. Soc. Exp. Biol. Med. 95, 729 (1957), was employed. A test compound suspended in 1% methylcellulose was given orally to fasted (17-21 hours) female white mice, 5-20 animals per double blind test. Aqueous (0.01% phenyl-p-benzoquinone) phenylquinone was injected intraperitoneally at 24 minutes later using 0.20 ml per mouse. […] The effective analgesic dose for 50% of the mice (ED50) was calculated by the moving average method of Thompson, W. R., Bact. Rev. 11, 115-145 (1947).

[2] = tested on: Adjuvant-Induced Arthritis in Rats; assay: Established Adjuvant-Induced Arthritis in Rats; assay type: in vivo, Charles River Lewis male rats; conditions: for ED50: 168 h, oral gavage daily for 7 days, ED50% decrease from control paw volume
Protocol: A procedure for detecting and comparing the antiinflammatory activity of compounds in this series and standard drugs for which there is a good correlation with human efficacy is the adjuvant-induced arthritis test in rats.
as §1
Charles River Lewis male rats (130-150 grams) are injected subcutaneously in plantar area of the right hind paw with 0.1 ml of adjuvant (Difco heat-killed, lyophilized Mycobacterium butyricum suspended in mineral oil 5 mg/ml). 20 Non-arthritic controls are injected with mineral oil. The animals are held for 2 weeks to allow development of arthritis. Paw volumes (uninjected, left hind paw) are measured and the adjuvant injected rats are culled and distributed to treatment groups of 10 of equal disease severity. Non-arthritic controls are distributed to 2 groups of 10. The rats are given oral doses of compound or PVA-Acacia (Polyvinyl Alcohol 1%, Gum Acacia, U.S.P. 5%, Methylparaben 0.5%) (10 ml/kg) by gavage on that day and on the 6 following days. One day after the last dose the paw volumes (uninjected, left hind paw) are measured using a Ugo Basile Volume Differential Meter Model 7101. [formula]
Dose-response regression lines of the % decrease are plotted on semi-log paper by visual fit and the ED50% decrease from control paw volume is determined by inspection.

[3] = Rattus norvegicus, Table VII, oral, read-out: percent reduction in paw volume at the indicated dose

CS(=O)(=O)c1ccc(-c2[nH]c(SC(F)(F)F)cc2-c2ccc(F)cc2)cc1 [Example 29]
ED50 ([1]; Table VIII): > 108 mg/kg
ED50 ([2]; Rattus norvegicus, Table VIII): 0.15 mg/kg

Cc1c(SC(F)(F)F)[nH]c(-c2ccc(Cl)cc2)c1-c1ccc(Cl)cc1 [Example 30]
ED50 ([1]; Table VIII): > 108 mg/kg
ED50 ([2]; Rattus norvegicus, Table VIII): 2 mg/kg

Cc1c(SC(F)(F)F)[nH]c(-c2ccc(F)cc2)c1-c1ccc(F)cc1 [Example 31]
ED50 ([1]; Table VIII): > 135 mg/kg
ED50 ([2]; Rattus norvegicus, Table VIII): 0.6 mg/kg

COc1ccc(-c2[nH]c(SC(F)(F)F)c(C)c2-c2ccc(OC)cc2)cc1 [Example 32]
ED50 ([2]; Rattus norvegicus, Table VIII): 2.2 mg/kg

CCCc1c(SC(F)(F)F)[nH]c(-c2ccc(F)cc2)c1-c1ccc(F)cc1 [Example 33]
ED50 ([1]; Table VIII): > 108 mg/kg
ED50 ([2]; Rattus norvegicus, Table VIII): 6.5 mg/kg

Fc1ccc(-c2cc(SC(F)(F)C(F)F)[nH]c2-c2ccc(F)cc2)cc1 [Example 35, 4,5-Bis(4-fluorophenyl)-2-(1,1,2,2-tetrafluoroethylthio)pyrrole]
ED50 ([1]; Table VII): > 108 mg/kg
ED50 ([2]; Rattus norvegicus, Table VII): 4 mg/kg

COc1ccc(-c2cc(SC)[nH]c2-c2ccc(OC)cc2)cc1 [Example 36]
ED50 ([1]; Table VII): > 130 mg/kg
ED50 ([2]; Rattus norvegicus, Table VII): 5 mg/kg

CSc1cc(-c2ccc(Cl)cc2)c(-c2ccc(Cl)cc2)[nH]1 [Example 38]
ED50 ([1]; Table VII): > 108 mg/kg
ED50 ([2]; Rattus norvegicus, Table VII): 10 mg/kg

FC(F)C(F)(F)Sc1cc(-c2ccc(Cl)cc2)c(-c2ccc(Cl)cc2)[nH]1 [Example 40]
ED50 ([1]; Table VII): > 108 mg/kg
inhibition in vivo at 9 mg/kg [2, 3]: 36%

CSc1cc(-c2ccc(F)cc2)c(-c2ccc(F)cc2)[nH]1 [Example 41]
ED50 ([1]; Table VII): > 108 mg/kg
inhibition in vivo at 27 mg/kg ([2]; Rattus norvegicus, Table VII, oral, dose 27 mg/kg, read-out: percent reduction in paw volume at the indicated dose): 19%

CSc1cc(-c2ccc(Cl)cc2)c(-c2ccc(F)cc2)[nH]1 [Example 43]
ED50 ([1]; Table VII): > 108 mg/kg
ED50 ([2]; Rattus norvegicus, Table VII): 20 mg/kg

CSc1cc(-c2ccc(F)cc2)c(-c2ccc(Cl)cc2)[nH]1 [Example 44]
ED50 ([1]; Table VII): > 108 mg/kg
ED50 ([2]; Rattus norvegicus, Table VII): 25 mg/kg

COc1ccc(-c2[nH]c(SC)cc2-c2ccc(F)cc2)cc1 [Example 45]
ED50 ([1]; Table VII): 78 mg/kg
ED50 ([2]; Rattus norvegicus, Table VII): 37 mg/kg

COc1ccc(-c2[nH]c(SC)cc2-c2ccc(Cl)cc2)cc1 [Example 46]
ED50 ([1]; Table VII): 63 mg/kg
ED50 ([2]; Rattus norvegicus, Table VII): 23 mg/kg

CSc1cc(-c2ccc(F)cc2)c(-c2ccccc2)[nH]1 [Example 47]
inhibition in vivo at 200 mg/kg ([2]; Rattus norvegicus, Table VII, oral, dose 200 mg/kg, read-out: percent reduction in paw volume at the indicated dose): 46%

CSc1cc(-c2ccc(Cl)cc2)c(-c2ccccc2)[nH]1 [Example 48]
ED50 ([1]; Table VII): > 108 mg/kg
inhibition in vivo at 45 mg/kg ([2]; Rattus norvegicus, Table VII, oral, dose 45 mg/kg, read-out: percent reduction in paw volume at the indicated dose): 22%

CSc1cc(-c2ccc(C)cc2)c(-c2ccc(C)cc2)[nH]1 [Example 49]
ED50 ([1]; Table VII): > 135 mg/kg
ED50 ([2]; Rattus norvegicus, Table VII): 50 mg/kg

O=S(=O)(c1cc(-c2ccccc2)c(-c2ccccc2)[nH]1)C(F)(F)F [Example 51]
ED50 ([1]; Table VII): 15 mg/kg
inhibition in vivo at 25 mg/kg [2, 3]: 46%

[O-][S+](c1cc(-c2ccccc2)c(-c2ccccc2)[nH]1)C(F)(F)F (centres unmarked) [Example 52]
ED50 ([1]; Table VII): 30 mg/kg
inhibition in vivo at 25 mg/kg [2, 3]: 31%

COc1ccc(-c2cc(S(=O)(=O)C(F)(F)F)[nH]c2-c2ccc(OC)cc2)cc1 [Example 53]
ED50 ([1]; Table VII): 78 mg/kg
inhibition in vivo at 9 mg/kg [2, 3]: 36%

COc1ccc(-c2cc(S(C)(=O)=O)[nH]c2-c2ccc(OC)cc2)cc1 [Example 54]
ED50 ([1]; Table VII): 16 mg/kg
ED50 ([2]; Rattus norvegicus, Table VII): 1 mg/kg

CCS(=O)(=O)c1cc(-c2ccc(OC)cc2)c(-c2ccc(OC)cc2)[nH]1 [Example 55]
ED50 ([1]; Table VII): 19 mg/kg
ED50 ([2]; Rattus norvegicus, Table VII): 9 mg/kg

O=S(=O)(c1cc(-c2ccc(F)cc2)c(-c2ccc(F)cc2)[nH]1)C(F)(F)F [Example 56]
ED50 ([1]; Table VII): > 135 mg/kg
ED50 ([2]; Rattus norvegicus, Table VII): 1.4 mg/kg

[O-][S+](c1cc(-c2ccc(F)cc2)c(-c2ccc(F)cc2)[nH]1)C(F)(F)F (centres unmarked) [Example 57]
ED50 ([1]; Table VII): > 135 mg/kg
ED50 ([2]; Rattus norvegicus, Table VII): 1 mg/kg

O=S(=O)(c1cc(-c2ccc(Cl)cc2)c(-c2ccc(Cl)cc2)[nH]1)C(F)(F)F [Example 58]
ED50 ([1]; Table VII): < 130 mg/kg
ED50 ([2]; Rattus norvegicus, Table VII): 1.7 mg/kg

[O-][S+](c1cc(-c2ccc(Cl)cc2)c(-c2ccc(Cl)cc2)[nH]1)C(F)(F)F (centres unmarked) [Example 59]
ED50 ([1]; Table VII): > 135 mg/kg
ED50 ([2]; Rattus norvegicus, Table VII): 2.7 mg/kg

CCOc1ccc(-c2[nH]c(S(=O)(=O)C(F)(F)F)cc2-c2ccc(F)cc2)cc1 [Example 60]
ED50 ([1]; Table VII): > 130 mg/kg
ED50 ([2]; Rattus norvegicus, Table VII): 16 mg/kg

O=S(=O)(c1ccccc1)n1c(SC(F)(F)F)cc(-c2ccc(F)cc2)c1-c1ccc(F)cc1 [Example 77]
Adjuvant Arthritis, value in parenthesis (percent reduction in paw volume/dose) ([2]; Table VIII, oral, dose 9.0 (unit not given)): 37%
